Laboratory results: US20240115744A1, “FIBRIN-BINDING COMPOUNDS FOR IMAGING AND TREATMENT” (Collagen Medical, LLC, priority 2019, published 2024)
Where two headings read alike, the source gives them in different places. Where a SMILES comes first, the peptide text is derived from it. Bridges are numbered along the chain shown (N, C = ends). [ ]: non-standard residue; d: D form. The star is where a group is joined. Tyr(3-Cl) = N[C@@H](Cc1ccc(O)c(Cl)c1)C(=O)O; Nicotinoyl(6-F) = O=C(c1ccc(F)nc1)*; Hyp = O=C(O)[C@@H]1C[C@@H](O)CN1

Assays:
[1] = target: T1, soluble fibrin fragment DD(E) (Homo sapiens, UniProt P02671+P02675+P02679, DEL433-453); assay: Fluorescence polarization DD(E) binding/displacement assay; conditions: for Ki: displacement of TRITC-labelled peptide from DD(E), TBS·Ca with 2% DMSO, estimated uncertainty ±10%; for Kd: sub-micromolar affinity, read-out: affinity (Kd) to fibrin as assessed by DD(E) assay
T1 construct: partial plasmin digestion of purified fibrin gel followed by size-exclusion chromatographic purification; made in house
Protocol: DD(E) was prepared using a published procedure which involved partial plasmin digestion of purified fibrin gel followed by size-exclusion chromatographic purification, and purity was assessed by SDS-PAGE. Peptides modified at the N-terminus with tetramethyl-rhodamine (TRITC) dye bind to DD(E). Direct fluorescent peptide binding to DD(E) was measured by a fluorescence polarization (FP) assay. The anisotropy (robs) of the fluorescently labeled peptides binding to DD(E) (0-20 μM) was measured in Tris buffered saline (50 mM Tris, 100 mM NaCl and 2 mM CaCl2) at fixed compound concentrations, and the data were fit to a single site model (Eq. 1) to obtain the dissociation constant (Kd) for the DD(E)·(fluorescent peptide) complex.
Displacement of the fluorescent peptide by non-fluorescent compound was measured to determine inhibition constants (Ki). In the presence of an inhibitor, an apparent dissociation constant for the fluorescent compound (Kd app) is determined using Eq. 2. The inhibition constant Ki is related to Kd app by Eq. 2, wherein Kd is the true dissociation constant of the fluorescent compound measured in the absence of inhibitor.
Non-labeled peptide binding to DD(E) was measured by a compound displacement assay, where a DD(E)/Fl·pep complex formed at fixed concentrations of DD(E) and Fl·pep was titrated with increasing concentrations of unlabeled compound. The compound was assayed by mixing DD(E) (4.0 μM, 10 μL) and TRITC (0.1 μM, 10 μL) with increasing concentrations of competing peptide (0.4-100 μM, 20 μL) in TBS·Ca with 2% DMSO in a final volume of 40 μL. Fluorescence polarization of the samples (10 μL, triplicate wells) in ascending concentrations was measured in a 384-well microplate (Corning flat black plate), using a Tecan Infinite 200 Pro fluorescence microplate reader equipped with fluorescence polarization filters, a 535 nm excitation filter and a 590 nm fluorescence emission filter. Average polarization (mP units) readings for each dilution of the compound of interest was converted to anisotropy (r) using Eq. 3.
The data defined a displacement curve (robs vs. [Peptide]), and the inhibitory binding constant, Ki, was determined by least squares fitting of the data (estimated uncertainty in Ki±10%). See Table 2 for the Ki values for the Compounds from Example 1.

[2] = target: soluble fibrin fragment DD(E); assay: fluorescence polarization, displacement of the TRITC peptide from DD(E)

T1 sequence (P02671 130-216 limits assumed, stated change not applied): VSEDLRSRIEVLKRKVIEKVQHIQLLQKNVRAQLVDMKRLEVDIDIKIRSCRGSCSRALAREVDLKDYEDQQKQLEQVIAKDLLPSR
T1 sequence (P02675 164-491 limits assumed, stated change not applied): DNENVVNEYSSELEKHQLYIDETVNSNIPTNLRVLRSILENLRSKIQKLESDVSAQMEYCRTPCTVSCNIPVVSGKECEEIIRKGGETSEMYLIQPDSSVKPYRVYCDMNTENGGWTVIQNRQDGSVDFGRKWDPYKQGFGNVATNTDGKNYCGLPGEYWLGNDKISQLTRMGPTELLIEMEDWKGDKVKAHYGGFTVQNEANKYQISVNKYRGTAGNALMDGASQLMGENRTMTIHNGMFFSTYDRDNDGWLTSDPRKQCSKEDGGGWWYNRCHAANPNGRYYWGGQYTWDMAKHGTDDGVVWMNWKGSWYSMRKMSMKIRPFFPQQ
T1 sequence (P02679 114-432 limits assumed, stated change not applied): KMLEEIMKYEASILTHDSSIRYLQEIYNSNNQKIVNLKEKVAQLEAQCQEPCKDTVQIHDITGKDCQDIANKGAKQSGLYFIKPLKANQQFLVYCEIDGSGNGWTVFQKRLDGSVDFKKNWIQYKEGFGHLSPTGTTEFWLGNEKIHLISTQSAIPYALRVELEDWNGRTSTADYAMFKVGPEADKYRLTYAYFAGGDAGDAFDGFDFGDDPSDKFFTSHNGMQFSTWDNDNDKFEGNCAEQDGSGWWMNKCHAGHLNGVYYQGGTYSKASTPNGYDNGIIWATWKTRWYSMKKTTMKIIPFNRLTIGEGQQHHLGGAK
T1 sequence (P02671 36-97 partner limits assumed): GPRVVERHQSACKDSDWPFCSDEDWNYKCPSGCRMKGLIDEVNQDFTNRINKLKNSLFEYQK
T1 sequence (P02675 45-152 partner limits assumed): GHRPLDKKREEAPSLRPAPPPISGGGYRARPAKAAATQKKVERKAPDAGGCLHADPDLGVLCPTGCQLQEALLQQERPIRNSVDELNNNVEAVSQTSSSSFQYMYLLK
T1 sequence (P02679 27-88 partner limits assumed): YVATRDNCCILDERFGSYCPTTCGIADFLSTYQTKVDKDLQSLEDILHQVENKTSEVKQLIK

Row | Molecule | Ki ([1]; read-out: Ki) [nM] | also measured
1 | CC[C@H](C)[C@H](NC(=O)[C@H](Cc1c[nH]cn1)NC(=O)[C@@H]1CSSC[C@H](NC(=O)[C@@H](CCC(=O)O)NC(=O)[C@H](Cc2ccc(O)cc2)NC(=O)c2ccc(F)nc2)C(=O)N2C[C@H](O)C[C@H]2C(=O)N[C@@H](Cc2ccc(O)c(Cl)c2)C(=O)NCC(=O)N[C@@H](CC(C)C)C(=O)N1)C(=O)N[C@@H](CCC(N)=O)C(N)=O [Compound 4, -Y-e-C-Hyp-Y(3-Cl)-G-L-C-H-I-Q-] ({Nicotinoyl(6-F)}-Y[dE]C[Hyp][Tyr(3-Cl)]GLCHIQ-NH2; disulfide 3-8) | 180 | Kd [1]: < 600 nM
2 | CC[C@H](C)[C@H](NC(=O)[C@H](Cc1c[nH]cn1)NC(=O)[C@@H]1CSSC[C@H](NC(=O)[C@@H](CCC(=O)O)NC(=O)[C@H](Cc2ccc(O)cc2)NC(=O)c2ccc(F)nc2)C(=O)N2C[C@H](O)C[C@H]2C(=O)N[C@@H](Cc2ccc(O)c(Cl)c2)C(=O)NCC(=O)N[C@@H](CC(C)C)C(=O)N1)C(=O)N[C@H](CCC(N)=O)C(N)=O [Compound 5, -Y-e-C-Hyp-Y(3-Cl)-G-L-C-H-I-q-] ({Nicotinoyl(6-F)}-Y[dE]C[Hyp][Tyr(3-Cl)]GLCHI[dQ]-NH2; disulfide 3-8) | 230 | Kd [1]: < 600 nM
3 | CC[C@H](C)[C@H](NC(=O)[C@H](Cc1c[nH]cn1)NC(=O)[C@@H]1CSSC[C@H](NC(=O)[C@@H](CCC(=O)O)NC(=O)[C@H](Cc2ccc(O)cc2)NC(=O)c2ccc(F)nc2)C(=O)N2C[C@H](O)C[C@H]2C(=O)N[C@@H](Cc2ccc(O)c(Cl)c2)C(=O)NCC(=O)N[C@@H](CC(C)C)C(=O)N1)C(=O)N[C@H](CC(C)C)C(N)=O [Compound 8, -Y-e-C-Hyp-Y(3-Cl)-G-L-C-H-I-1-] ({Nicotinoyl(6-F)}-Y[dE]C[Hyp][Tyr(3-Cl)]GLCHI[dL]-NH2; disulfide 3-8) | 640 | 
4 | CC[C@H](C)[C@H](NC(=O)[C@H](Cc1c[nH]cn1)NC(=O)[C@@H]1CSSC[C@H](NC(=O)[C@@H](CCC(=O)O)NC(=O)[C@@H](Cc2ccc(O)cc2)NC(=O)c2ccc(F)nc2)C(=O)N2C[C@H](O)C[C@H]2C(=O)N[C@@H](Cc2ccc(O)c(Cl)c2)C(=O)NCC(=O)N[C@@H](CC(C)C)C(=O)N1)C(=O)N[C@@H](CCC(N)=O)C(N)=O [Compound 2, -y-e-C-Hyp-Y(3-Cl)-G-L-C-H-I-Q-] ({Nicotinoyl(6-F)}-[dY][dE]C[Hyp][Tyr(3-Cl)]GLCHIQ-NH2; disulfide 3-8) | 70 | Kd [1]: < 600 nM
5 | CC[C@H](C)[C@H](NC(=O)[C@H](Cc1c[nH]cn1)NC(=O)[C@@H]1CSSC[C@H](NC(=O)[C@@H](CCC(=O)O)NC(=O)[C@@H](Cc2ccc(O)cc2)NC(=O)c2ccc(F)nc2)C(=O)N2C[C@H](O)C[C@H]2C(=O)N[C@@H](Cc2ccc(O)c(Cl)c2)C(=O)NCC(=O)N[C@@H](CC(C)C)C(=O)N1)C(=O)N[C@H](CC(C)C)C(N)=O [Compound 3, -y-e-C-Hyp-Y(3-Cl)-G-L-C-H-I-1-] ({Nicotinoyl(6-F)}-[dY][dE]C[Hyp][Tyr(3-Cl)]GLCHI[dL]-NH2; disulfide 3-8) | 140 | Kd [1]: < 600 nM
6 | -Y-h-C-Hyp-Y(3-Cl)-G-L-C-Y-I-Q- ({Nicotinoyl(6-F)}-Y[dH]C[Hyp][Tyr(3-Cl)]GLCYIQ-NH2; disulfide 3-8; not fully specified; printed as -Y-h-C-Hyp-Y(3-Cl)-G-L-C-Y-I-Q-) [Compound 15, N-terminal modified peptide (F is fluorine), C-terminal amide] |  | Ki [1]: No
7 | CC[C@H](C)[C@H](NC(=O)[C@H](Cc1ccc(O)cc1)NC(=O)[C@@H]1CSSC[C@H](NC(=O)[C@@H](CCC(=O)O)NC(=O)[C@@H](Cc2ccc(O)cc2)NC(=O)c2ccc(F)nc2)C(=O)N2C[C@H](O)C[C@H]2C(=O)N[C@@H](Cc2ccc(O)c(Cl)c2)C(=O)NCC(=O)N[C@@H](CC(C)C)C(=O)N1)C(=O)N[C@H](CC(C)C)C(N)=O [Compound 9, -y-e-C-Hyp-Y(3-Cl)-G-L-C-Y-I-1-] ({Nicotinoyl(6-F)}-[dY][dE]C[Hyp][Tyr(3-Cl)]GLCYI[dL]-NH2; disulfide 3-8) | 730 | 
8 | {Nicotinoyl(6-F)}-[dY][dE]C[Hyp][Tyr(3-Cl)]GLCYI[dQ]-NH2 (disulfide 3-8; SMILES CC[C@H](C)[C@H](NC(=O)[C@H](Cc1ccc(O)cc1)NC(=O)[C@@H]1CSSC[C@H](NC(=O)[C@@H](CCC(=O)O)NC(=O)[C@@H](Cc2ccc(O)cc2)NC(=O)c2ccc(F)nc2)C(=O)N2C[C@H](O)C[C@H]2C(=O)N[C@@H](Cc2ccc(O)c(Cl)c2)C(=O)NCC(=O)N[C@@H](CC(C)C)C(=O)N1)C(=O)N[C@H](CCC(N)=O)C(N)=O) [Compound 11] |  | Ki [2]: 1010 nM
9 | {Nicotinoyl(6-F)}-Y[dE]C[Hyp][Tyr(3-Cl)]GLCYI[dL]-NH2 (disulfide 3-8; SMILES CC[C@H](C)[C@H](NC(=O)[C@H](Cc1ccc(O)cc1)NC(=O)[C@@H]1CSSC[C@H](NC(=O)[C@@H](CCC(=O)O)NC(=O)[C@H](Cc2ccc(O)cc2)NC(=O)c2ccc(F)nc2)C(=O)N2C[C@H](O)C[C@H]2C(=O)N[C@@H](Cc2ccc(O)c(Cl)c2)C(=O)NCC(=O)N[C@@H](CC(C)C)C(=O)N1)C(=O)N[C@H](CC(C)C)C(N)=O) [Compound 10] |  | Ki [2]: 950 nM

More lines, main results first:

Row | Ki ([1]; read-out: Ki) [nM] | Molecule | also measured
10 | 1200 | CC[C@H](C)[C@H](NC(=O)[C@H](Cc1ccc(O)cc1)NC(=O)[C@@H]1CSSC[C@H](NC(=O)[C@@H](CCC(=O)O)NC(=O)[C@H](Cc2ccc(O)cc2)NC(=O)c2ccc(F)nc2)C(=O)N2C[C@H](O)C[C@H]2C(=O)N[C@@H](Cc2ccc(O)c(Cl)c2)C(=O)N[C@@H](CC(=O)O)C(=O)N[C@@H](CC(C)C)C(=O)N1)C(=O)N[C@@H](CCC(N)=O)C(N)=O [Compound 12, -Y-e-C-Hyp-Y(3-Cl)-D-L-C-Y-I-Q-] ({Nicotinoyl(6-F)}-Y[dE]C[Hyp][Tyr(3-Cl)]DLCYIQ-NH2; disulfide 3-8) | 
11 | 950 | CC[C@H](C)[C@H](NC(=O)[C@H](Cc1ccc(O)cc1)NC(=O)[C@@H]1CSSC[C@H](NC(=O)[C@@H](CCC(=O)O)NC(=O)[C@H](Cc2ccc(O)cc2)NC(=O)c2ccc(F)nc2)C(=O)N2C[C@H](O)C[C@H]2C(=O)N[C@@H](Cc2ccc(O)c(Cl)c2)C(=O)NCC(=O)N[C@@H](CC(C)C)C(=O)N1)C(=O)N[C@H](CC(C)C)C(N)=O [Compound 10, -Y-e-C-Hyp-Y(3-Cl)-G-L-C-Y-I-1-] ({Nicotinoyl(6-F)}-Y[dE]C[Hyp][Tyr(3-Cl)]GLCYI[dL]-NH2; disulfide 3-8) | 
12 | 2760 | CC[C@H](C)[C@H](NC(=O)[C@H](Cc1ccc(O)cc1)NC(=O)[C@@H]1CSSC[C@H](NC(=O)[C@@H](CCC(=O)O)NC(=O)[C@H](Cc2ccc(O)cc2)NC(=O)c2ccc(F)nc2)C(=O)N2C[C@H](O)C[C@H]2C(=O)N[C@@H](Cc2ccc(O)c(Cl)c2)C(=O)N[C@H](CC(=O)O)C(=O)N[C@@H](CC(C)C)C(=O)N1)C(=O)N[C@@H](CCC(N)=O)C(N)=O [Compound 14, -Y-e-C-Hyp-Y(3-Cl)-d-L-C-Y-I-Q-] ({Nicotinoyl(6-F)}-Y[dE]C[Hyp][Tyr(3-Cl)][dD]LCYIQ-NH2; disulfide 3-8) | 
13 | 1010 | CC[C@H](C)[C@H](NC(=O)[C@H](Cc1ccc(O)cc1)NC(=O)[C@@H]1CSSC[C@H](NC(=O)[C@@H](CCC(=O)O)NC(=O)[C@@H](Cc2ccc(O)cc2)NC(=O)c2ccc(F)nc2)C(=O)N2C[C@H](O)C[C@H]2C(=O)N[C@@H](Cc2ccc(O)c(Cl)c2)C(=O)NCC(=O)N[C@@H](CC(C)C)C(=O)N1)C(=O)N[C@H](CCC(N)=O)C(N)=O [Compound 11, -y-e-C-Hyp-Y(3-Cl)-G-L-C-Y-I-q-] ({Nicotinoyl(6-F)}-[dY][dE]C[Hyp][Tyr(3-Cl)]GLCYI[dQ]-NH2; disulfide 3-8) | 
14 | 1250 | CC[C@H](C)[C@H](NC(=O)[C@H](Cc1ccc(O)cc1)NC(=O)[C@@H]1CSSC[C@H](NC(=O)[C@@H](CCC(=O)O)NC(=O)[C@H](Cc2ccc(O)cc2)NC(=O)c2ccc(F)nc2)C(=O)N2C[C@H](O)C[C@H]2C(=O)N[C@@H](Cc2ccc(O)c(Cl)c2)C(=O)NCC(=O)N[C@@H](CC(C)C)C(=O)N1)C(=O)N[C@H](CCC(N)=O)C(N)=O [Compound 13, -Y-e-C-Hyp-Y(3-Cl)-G-L-C-Y-I-q-] ({Nicotinoyl(6-F)}-Y[dE]C[Hyp][Tyr(3-Cl)]GLCYI[dQ]-NH2; disulfide 3-8) | 
